How the values were obtained:
Type in all cases: cell-based
STING WT variant = biological target: T1, STING WT variant (Homo sapiens, UniProt Q86WV6); test: SEAP reporter assay in HEK-Blue ISG KO-STING cells transfected with STING WT variant (Method 1); details: 24 h, SEAP signal vs 0.5% DMSO
T1 construct: host or cells: HEK-Blue ISG KO-STING cells (Invivogen, hkb-kostg)
Description: (§1) Activation of STING can be determined using a SEAP reporter assay in HEK-Blue™ ISG KO-STING cells (Invivogen, cat #hkb-kostg) transfected with plasmids expressing STING variants (WT & HAQ) (referred to WO2017/175147A1). STING variants (WT & HAQ) vector were constructed based on STING-232H vector (Origene, RC208418). GFP vector (VT2069) was bought from Youbio. The detailed protocol as follows: HEK-Blue™ ISG KO-STING cells were harvest and seeding into 96 well plate, the final cell number was 0.8×10^5 cells/well. Transfections were prepared using Lipofectamine 2000 (Invitrogen, Cat #11668-027) following the manufacturer's instructions (Lipo2000/DNA=1/10), 20 ul of transfection suspension containing 1 ng STING vector was added to cell culture plate and incubated at 37° C., 5% CO2 for 24 hours. After 24 hours' incubation, compounds were added at proper concentration, and the final DMSO concentration was 0.5%. After 24 h incubation, the supernatant was collected to detect SEAP signal using Great EscAPe SEAP chemiluminescence KIT (Clontech, cat #631738) and cells were collected to detect cell viability using CellTiter-Glo Luminescent Cell Viability Assay (Promega, cat #G7573) following the manufacturer's instructions. The data were described by the ratio of the stimulating signal of compounds to 0.5% DMSO.

STING HAQ variant = biological target: T2, STING HAQ variant (Homo sapiens, UniProt Q86WV6, G230A/R293Q/R71H); test: SEAP reporter assay in HEK-Blue ISG KO-STING cells transfected with STING HAQ variant (Method 1); details: 24 h, SEAP signal vs 0.5% DMSO
T2 construct: host or cells: HEK-Blue ISG KO-STING cells (Invivogen, hkb-kostg)
Description: as §1

STING = STING (Homo sapiens, UniProt Q86WV6); test: IFN-β secretion from THP1 by STING activation (hIFNβ ELISA); details: THP1 cells, 24 h incubation, IFN-β in supernatant, top dose set according to solubility; for EC50: read-out: hIFNβ ELISA (EC50)
Protocol: In this assay, activation of STING by compounds was evaluated by detecting their ability to stimulate the secretion of IFN-β (interferon-beta) from THP1. THP1 was purchased from National Collection of Authenticated Cell Cultures (Cat #TCHu 57). The top dose of compounds was setted according to their solubility. First, Compounds were 3 times diluted with medium, 8-dose points in total. The final DMSO concentration was 0.2%. THP1 during the logarithmic phase was resuspended to 2×10^6 cells/ml in assay medium. The THP1-cell suspension was dispensed into a 96-well U bottom plate containing 50 ul of compound diluted in medium. After 24 h incubation at 37° C., 5% CO2, the supernatant was collected. The concentration of IFN-β in the supernatant was measured using a human IFNβ ELISA KIT (R&D, DY814-05). The data was fitted with GraphPad Prism or XLfit to calculate EC50 values.

[1] = 1 ng STING vector, compound 2.5 uM
[2] = 1 ng STING vector, compound 5 uM

T2 sequence (Q86WV6 whole entry R71H/G230A/R293Q): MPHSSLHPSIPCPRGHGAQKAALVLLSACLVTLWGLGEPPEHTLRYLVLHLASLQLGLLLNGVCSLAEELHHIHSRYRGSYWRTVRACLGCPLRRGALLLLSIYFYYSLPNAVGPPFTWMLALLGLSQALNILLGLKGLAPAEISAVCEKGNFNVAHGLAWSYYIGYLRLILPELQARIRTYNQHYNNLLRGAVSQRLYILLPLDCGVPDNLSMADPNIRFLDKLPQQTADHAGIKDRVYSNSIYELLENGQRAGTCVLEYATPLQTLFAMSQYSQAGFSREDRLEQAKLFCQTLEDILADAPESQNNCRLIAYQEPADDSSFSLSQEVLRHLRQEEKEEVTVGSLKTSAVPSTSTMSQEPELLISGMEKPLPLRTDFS
Chain of STING (Q86WV6 whole entry): as the sequence (Q86WV6 whole entry R71H/G230A/R293Q) above, with H71R, A230G, Q293R counted along it

Fold change related to DMSO control WT (STING WT variant; [1])	Fold change related to DMSO control HAQ (STING HAQ variant; [2])	EC50 (STING)	hIFNβ ELISA (EC50, μM) (STING)	Fold change related to DMSO control WT (STING WT variant; compound 15.65 uM)	Fold change related to DMSO control HAQ (STING HAQ variant; compound 15.65 uM)	Fold change related to DMSO control WT (STING WT variant; compound 80.2 uM)	Fold change related to DMSO control HAQ (STING HAQ variant; compound 80.2 uM)	SMILES
2.38	40.44	1.4 µM	–	–	–	–	–	CCn1nc(C)cc1C(=O)Nc1nc2cc(C(N)=O)cc(OCCCNC(=O)CN3CCOCC3)c2n1CCC[C@H]1COc2cc(C(N)=O)cc3nc(NC(=O)c4cc(C)nn4CC)n1c23 [Example 21, (S)-3-(3-(5-carbamoyl-2-(1-ethyl-3-methyl-1H-pyrazole-5-carboxamido)-7-(3-(2-morpholinoacetamido)propoxy)-1H-benzo[d]imidazol-1-yl)propyl)-2-(1-ethyl-3-methyl-1H-pyrazole-5-carboxamido)-3,4-dihydro-5-oxa-1,2a-diazaacenaphthylene-7-carboxamide]
–	–	–	inactive	1.99	2.52	–	–	CCn1nc(C)cc1C(=O)Nc1nc2cc(C(N)=O)cc(OCCCOC)c2n1CCC[C@@H]1COc2cc(C(N)=O)cc3nc(NC(=O)c4cc(C)nn4CC)n1c23 [Example 2, (R)-3-(3-(5-Carbamoyl-2-(1-ethyl-3-methyl-1H-pyrazole-5-carboxamido)-7-(3-methoxypropoxy)-1H-benzo[d]imidazol-1-yl)propyl)-2-(1-ethyl-3-methyl-1H-pyrazole-5-carboxamido)-3,4-dihydro-5-oxa-1,2a-diazaacenaphthylene-7-carboxamide]
2.33	60.17	6.2 µM	–	–	–	–	–	CCn1nc(C)cc1C(=O)Nc1nc2cc(C(N)=O)cc(OCCOC)c2n1CCC[C@H]1COc2cc(C(N)=O)cc3nc(NC(=O)c4cc(C)nn4CC)n1c23 [Example 19, (S)-3-(3-(5-carbamoyl-2-(1-ethyl-3-methyl-1H-pyrazole-5-carboxamido)-7-(2-methoxyethoxy)-1H-benzo[d]imidazol-1-yl)propyl)-2-(1-ethyl-3-methyl-1H-pyrazole-5-carboxamido)-3,4-dihydro-5-oxa-1,2a-diazaacenaphthylene-7-carboxamide]
2.70	56.42	1.1 µM	–	–	–	–	–	CCn1nc(C)cc1C(=O)Nc1nc2cc(C(N)=O)cc(OCCCN3CCOCC3)c2n1CCC[C@H]1COc2cc(C(N)=O)cc3nc(NC(=O)c4cc(C)nn4CC)n1c23 [Example 24, (S)-3-(3-(5-carbamoyl-2-(1-ethyl-3-methyl-1H-pyrazole-5-carboxamido)-7-(3-morpholinopropoxy)-1H-benzo[d]imidazol-1-yl)propyl)-2-(1-ethyl-3-methyl-1H-pyrazole-5-carboxamido)-3,4-dihydro-5-oxa-1,2a-diazaacenaphthylene-7-carboxamide]
2.07	20.47	> 17.9 µM	–	–	–	–	–	CCn1nc(C)cc1C(=O)Nc1nc2cc(C(N)=O)cc(OCCNC)c2n1CCC[C@H]1COc2cc(C(N)=O)cc3nc(NC(=O)c4cc(C)nn4CC)n1c23 [Example 16, (S)-3-(3-(5-carbamoyl-2-(1-ethyl-3-methyl-1H-pyrazole-5-carboxamido)-7-(2-(methylamino)ethoxy)-1H-benzo[d]imidazol-1-yl)propyl)-2-(1-ethyl-3-methyl-1H-pyrazole-5-carboxamido)-3,4-dihydro-5-oxa-1,2a-diazaacenaphthylene-7-carboxamide]

Second part, the compound before the results:

SMILES	Fold change related to DMSO control WT (STING WT variant; [1])	Fold change related to DMSO control HAQ (STING HAQ variant; [2])	EC50 (STING)	hIFNβ ELISA (EC50, μM) (STING)	Fold change related to DMSO control WT (STING WT variant; compound 15.65 uM)	Fold change related to DMSO control HAQ (STING HAQ variant; compound 15.65 uM)	Fold change related to DMSO control WT (STING WT variant; compound 80.2 uM)	Fold change related to DMSO control HAQ (STING HAQ variant; compound 80.2 uM)
CCn1nc(C)cc1C(=O)Nc1nc2cc(C(N)=O)cc(OCCCNC(C)=O)c2n1CCC[C@H]1COc2cc(C(N)=O)cc3nc(NC(=O)c4cc(C)nn4CC)n1c23 [Example 22, (S)-3-(3-(7-(3-acetamidopropoxy)-5-carbamoyl-2-(1-ethyl-3-methyl-1H-pyrazole-5-carboxamido)-1H-benzo[d]imidazol-1-yl)propyl)-2-(1-ethyl-3-methyl-1H-pyrazole-5-carboxamido)-k, 3,4-dihydro-5-oxa-1,2a-diazaacenaphthylene-7-carboxamide]	2.40	47.36	3.9 µM	–	–	–	–	–
CCn1nc(C)cc1C(=O)Nc1nc2cc(C(N)=O)cc(OCCCS(C)(=O)=O)c2n1CCC[C@H]1COc2cc(C(N)=O)cc3nc(NC(=O)c4cc(C)nn4CC)n1c23 [Example 37, (S)-3-(3-(5-carbamoyl-2-(1-ethyl-3-methyl-1H-pyrazole-5-carboxamido)-7-(3-(methylsulfonyl)propoxy)-1H-benzo[d]imidazol-1-yl)propyl)-2-(1-ethyl-3-methyl-1H-pyrazole-5-carboxamido)-3,4-dihydro-5-oxa-1,2a-diazaacenaphthylene-7-carboxamide]	2.14	23.71	–	inactive	–	–	–	–
COCCCOc1cc(C(N)=O)cc2nc(NC(=O)c3cc(C)nn3CCF)n(CCC[C@H]3COc4cc(C(N)=O)cc5nc(NC(=O)c6cc(C)nn6CCF)n3c45)c12 [Example 10, (S)-3-(3-(5-carbamoyl-2-(1-(2-fluoroethyl)-3-methyl-1H-pyrazole-5-carboxamido)-7-(3-methoxypropoxy)-1H-benzo[d]imidazol-1-yl)propyl)-2-(1-(2-fluoroethyl)-3-methyl-1H-pyrazole-5-carboxamido)-3,4-dihydro-5-oxa-1,2a-diazaacenaphthylene-7-carboxamide]	1.98	16.63	–	inactive	–	–	–	–
CCn1nc(C)cc1C(=O)Nc1nc2cc(C(N)=O)cc(OCC[C@@H](O)CO)c2n1CCC[C@H]1COc2cc(C(N)=O)cc3nc(NC(=O)c4cc(C)nn4CC)n1c23 [Example 38, (S)-3-(3-(5-carbamoyl-7-((R)-3,4-dihydroxybutoxy)-2-(1-ethyl-3-methyl-1H-pyrazole-5-carboxamido)-1H-benzo[d]imidazol-1-yl)propyl)-2-(1-ethyl-3-methyl-1H-pyrazole-5-carboxamido)-3,4-dihydro-5-oxa-1,2a-diazaacenaphthylene-7-carboxamide]	2.15	18.05	–	inactive	–	–	–	–
CCn1nc(C)cc1C(=O)Nc1nc2cc(C(N)=O)cc(OCCCNC(=O)C[C@H]3COCCN3)c2n1CCC[C@H]1COc2cc(C(N)=O)cc3nc(NC(=O)c4cc(C)nn4CC)n1c23 [Example 33]	1.88	16.31	12 µM	–	–	–	–	–
CCn1nc(C)cc1C(=O)Nc1nc2cc(C(N)=O)cc(OCCCOC)c2n1CC[C@H]1COc2cc(C(N)=O)cc3nc(NC(=O)c4cc(C)nn4CC)n1c23 [Example 7, (S)-3-(2-(5-carbamoyl-2-(1-ethyl-3-methyl-1H-pyrazole-5-carboxamido)-7-(3-methoxypropoxy)-1H-benzo[d]imidazol-1-yl)ethyl)-2-(1-ethyl-3-methyl-1H-pyrazole-5-carboxamido)-3,4-dihydro-5-oxa-1,2a-diazaacenaphthylene-7-carboxamide]	–	–	–	inactive	–	–	1.96	20.29
CCn1nc(C)cc1C(=O)Nc1nc2cc(C(N)=O)cc(OCCCN(C)C(C)=O)c2n1CCC[C@H]1COc2cc(C(N)=O)cc3nc(NC(=O)c4cc(C)nn4CC)n1c23 [Example 27, (S)-3-(3-(5-carbamoyl-2-(1-ethyl-3-methyl-1H-pyrazole-5-carboxamido)-7-(3-(N-methylacetamido)propoxy)-1H-benzo[d]imidazol-1-yl)propyl)-2-(1-ethyl-3-methyl-1H-pyrazole-5-carboxamido)-3,4-dihydro-5-oxa-1,2a-diazaacenaphthylene-7-carboxamide]	2.22	45.86	3.9 µM	–	–	–	–	–
CCn1nc(C)cc1C(=O)Nc1nc2cc(C(N)=O)cc(OCCCOC)c2n1CCC[C@H]1COc2cc(C#N)cc3nc(NC(=O)c4cc(C)nn4CC)n1c23 [Example 11, (S)-1-(3-(7-cyano-2-(1-ethyl-3-methyl-1H-pyrazole-5-carboxamido)-3,4-dihydro-5-oxa-1,2a-diazaacenaphthylen-3-yl)propyl)-2-(1-ethyl-3-methyl-1H-pyrazole-5-carboxamido)-7-(3-methoxypropoxy)-1H-benzo[d]imidazole-5-carboxamide]	1.83	27.74	–	–	–	–	–	–
